# ChEMBL document CHEMBL5528015, “Structure-based design of SARS-CoV-2 papain-like protease inhibitors” (Eur J Med Chem, 2024)
# Active and inactive are the calls of the source. No cut-off for these calls is given here.
# Key:
# [1] = target: Replicase polyprotein 1ab (Severe acute respiratory syndrome coronavirus 2, UniProt P0DTD1); experiment: biochemical
# [2] = target: Replicase polyprotein 1ab (Severe acute respiratory syndrome coronavirus 2) (UniProt P0DTD1); settings: BetaCoV/Wuhan/WIV04/2019, dose 40.0 µM, time 30.0 min
# [3] = mouse, microsomes, 1 h, 1 µM
# [4] = Cytotoxicity against African green monkey Vero E6 cells incubated for 48 hrs by neutral red uptake assay; format: toxicity, cell-based, Vero C1008; settings: chlorocebus sabaeus
# [5] = Metabolic stability in mouse liver microsomes assessed as intrinsic clearance at 1 uM measured upto 60 mins in presence of NADPH regenerating system by LC-MS/MS analysis; format: ADME, Microsome; settings: read-out: CLH
# in vitro = settings: mouse, liver microsomes
Structure (SMILES),IC50 [1] [µM],CC50 at 48 h [4] [µM],also measured
Cc1ccc(OCCN)cc1C(=O)N[C@H](C)c1cccc(-c2ccc(C#N)cc2)c1,0.89,–,–
Cc1ccc(OCCN)cc1C(=O)N[C@H](C)c1cccc(-c2ccoc2)c1,–,103,Activity [2]: Active; t1/2 [3]: 0.897 h; microsomal CLint at 1 µM [5]: 25.7 µL/min/mg
Cc1ccc(OCCN)cc1C(=O)N[C@H](C)c1cccc(-c2ccc(CNC3CC3)s2)c1,0.94,–,–
C[C@H](c1cccc2ccccc12)N(C)Cc1c[nH]c2ccccc12,–,24.7,–
Cc1ccc(OCCN)cc1C(=O)N[C@H](C)c1cccc(-c2ccnn2C)c1,2.78,–,–
Cc1ccc(O)cc1CN(C)[C@H](C)c1cccc2ccccc12,–,14.4,microsomal CLint at 1 µM [5]: 2490 µL/min/mg
C[C@H](c1cccc2ccccc12)N(C)Cc1c[nH]c2cc(F)ccc12,–,31.8,–
Cc1ccc(OCCN)cc1C(=O)N[C@H](C)c1cccc(-c2ccc(C#N)s2)c1,–,15,–
Cc1ccc(OCCN)cc1C(=O)N[C@H](C)c1cccc(-c2cnn(C)c2)c1,0.96,–,–
Cc1ccc(OCCN)cc1C(=O)N[C@H](C)c1cccc(-c2ccn(C)c2C)c1,3.35,–,–
Cc1ccc(OCCN)cc1C(=O)N[C@H](C)c1cccc(-c2cnc(N(C)C)nc2)c1,> 20,–,–
Cc1ccc(OCCN)cc1C(=O)N[C@H](C)c1cccc2ccccc12,–,–,t1/2 [3]: > 2.42 h; microsomal CLint at 1 µM [5]: < 9.6 µL/min/mg
C[C@H](c1cccc2ccccc12)N(C)Cc1ccc2cn[nH]c2c1,–,28.3,–
Cc1ccc(OCCN)cc1C(=O)N[C@H](C)c1cccc(-c2cn[nH]c2)c1,1.49,–,–
Cc1ccc(OCCN)cc1C(=O)N[C@H](C)c1cccc(-c2ccc(F)cc2F)c1,1.54,–,–
COCCn1cc(-c2cccc([C@@H](C)NC(=O)c3cc(OCCN)ccc3C)c2)cn1,1.51,–,–
C[C@H](c1cccc2ccccc12)N(C)Cc1ccc(O)cc1,–,23.7,"half-life at 1 h, 1 µM (in vitro): 1.8 min; microsomal CLint at 1 µM [5]: 779 µL/min/mg"
C[C@H](c1cccc(-c2cccs2)c1)N(C)Cc1c[nH]c2cc(F)ccc12,2.34,–,–
COc1cc([N+](=O)[O-])ccc1CN(C)[C@H](C)c1cccc2ccccc12,–,> 100,Activity [2]: Active
C[C@H](c1cccc(-c2ccc(CN3CCCC3)s2)c1)N(C)Cc1cccc2[nH]ccc12,3.39,–,–
Cc1ccc(OCCN)cc1C(=O)N[C@H](C)c1cccc(-c2ccn[nH]2)c1,1.16,–,–

Structure (SMILES),IC50 [1] [µM],CC50 at 48 h [4] [µM],also measured
Cc1ccc(OCCN)cc1C(=O)N[C@H](C)c1cccc(-c2ccc(F)cc2)c1,1.22,–,–
C[C@H](c1cccc2ccccc12)N(C)Cc1c[nH]c2ccc(F)cc12,–,32.5,–
Cc1ccc(NC2CNC2)cc1CN(C)[C@H](C)c1cccc2ccccc12,–,13.7,t1/2 [3]: 1.673 h; microsomal CLint at 1 µM [5]: 13.8 µL/min/mg
Cc1ccc(OCCN)cc1C(=O)N[C@H](C)c1cccc(-c2c[nH]nc2C)c1,1.96,–,–
C[C@H](c1cccc(-c2ccc(CN3CCCC3)s2)c1)N(C)Cc1ccc2[nH]ncc2c1,7.09,–,–
Cc1ccc(OCCN)cc1C(=O)N[C@H](C)c1cccc(-c2cnn(Cc3ccccc3)c2)c1,1.03,–,–
Cc1ccc(OCCN)cc1C(=O)N[C@H](C)c1cccc(-c2ccc3c(c2)OCCO3)c1,0.97,–,–
Cc1ccc(OCCN)cc1C(=O)N[C@H](C)c1cccc(-c2ccc3c(c2)CCO3)c1,1.08,–,–
Cc1ccc(OCCN)cc1C(=O)N[C@H](C)c1cccc(-c2cccs2)c1,–,15.2,t1/2 [3]: > 2.42 h; microsomal CLint at 1 µM [5]: < 9.6 µL/min/mg
C[C@H](c1cccc2ccccc12)N(C)Cc1ccc2[nH]ncc2c1,–,35.5,–
C[C@H](c1cccc(-c2cccs2)c1)N(C)Cc1ccc2cn[nH]c2c1,2.36,–,–
C[C@H](c1cccc2ccccc12)N(C)Cc1ccc(O)cc1O,–,31.5,Activity [2]: Active
C[C@H](c1cccc(-c2cccs2)c1)N(C)Cc1c[nH]c2ccc(F)cc12,2.66,–,–
Cc1ccc(OCCN)cc1C(=O)N[C@H](C)c1cccc(-c2c(C)noc2C)c1,1.48,–,–
Cc1ccc(OCCN)cc1C(=O)N[C@H](C)c1cccc(-c2ccc(O)cc2)c1,–,45.2,t1/2 [3]: 0.962 h; microsomal CLint at 1 µM [5]: 24 µL/min/mg
COc1cc(O)ccc1CN(C)[C@@H](C)c1cccc(-c2ccc(CN3CCCC3)s2)c1,3,–,–
Cc1ccc(OCCN)cc1C(=O)N[C@H](C)c1cccc(-c2ccccc2O)c1,2.25,–,–
C[C@H](c1cccc(-c2cccs2)c1)N(C)Cc1ccc(O)cc1O,5.03,–,–
Cc1ccc(OCCN)cc1C(=O)N[C@H](C)c1cccc(-c2cnn(C(F)F)c2)c1,1.14,–,–
Cc1ccc(OCCN)cc1C(=O)N[C@H](C)c1cccc(-c2ccsc2)c1,–,> 30,t1/2 [3]: 1.958 h; microsomal CLint at 1 µM [5]: 11.8 µL/min/mg
